How the values were obtained:
[1] = Secondary pharmacology panel; details: 10 μM initial screen; apart from adenosine receptors; data not shown
[2] = system: human tumor-infiltrating lymphocytes (TILs); assay: Ex vivo assay of disaggregated resected NSCLC tumors, γ-interferon ELISA; type: cell-based; details: tumors of Figure 5 A and B; 3 days culture
B16-CD73+ tumor cells = assay: Experimental lung metastasis model, B16-CD73+ cells i.v.; type: in vivo, C57Bl/6 mice; details: 15 mg/kg/day oral gavage, daily for 15 days, vs vehicle, P < .05
MCA205 tumor cells = assay: Experimental lung metastasis model, MCA205 cells i.v.; type: in vivo, C57Bl/6 mice; details: 30 mg/kg/day oral gavage, daily for 7 days, vs vehicle, P < .05
A2aR = details: alone or in combination with anti-PD-1 and anti-CTLA4; cited from earlier work

In the case of Nc1nc(-n2cccn2)nc(-n2cccn2)c1Br [PBF-509], the “effect in secondary pharmacology profile” value [1] was “did not show any relevant effect”, the “TIL function (γ-interferon), combination of PBF-509 with anti-PD-L1” value [2] was “improved TIL function in an additive fashion” and the “tumor burden (lung nodules, lung weight)” value (B16-CD73+ tumor cells) was “significantly reduced tumor burden”. For the same compound, the “tumor burden (lung nodules, lung weight)” value (MCA205 tumor cells) was “significantly reduced tumor burden”.
In the case of Nc1nc2c(cnn2CCc2ccccc2)c2nc(-c3ccco3)nn12 [SCH58261], the “tumor burden in vivo” value (A2aR) is listed as “decreased tumor burden”.
In the case of Nc1nc(NCCc2ccc(O)cc2)nc2nc(-c3ccco3)nn12 [ZM241385], the “tumor burden in vivo” value (A2aR) is given as “decreased tumor burden”.

From PMC5458644 (Neoplasia (New York, N.Y.), 2017)
